Test results from patent US4748180A, “β-carboline-3-carboxylic acid derivatives, and their use as psychotropic and anti-epileptic agents” (Schering Aktiengesellschaft, priority 1984, dated 1988).

Key:
benzodiazepine receptors [1] = assay: in vitro inhibition of 3H-flunitrazepam binding (displacement test, brain membrane suspension); design: unit not given here; settings: 3H-flunitrazepam 1.0 nM, 0° C., rat forebrain, pH 7.1
benzodiazepine receptors [2] = assay: in vivo inhibition of 3H-flunitrazepam binding (forebrain membranes of injected mice); settings: usually subcutaneously, 3H-flunitrazepam i.v. 15 minutes later, killed after a further 20 minutes
Method: The ED50 value represents the dose (mg/kg) of a test substance which causes the specific binding of flunitrazepam to benzodiazepine receptors in a living brain to be reduced to 50% of the control value. Such an in vivo test is carried out as follows:
Groups of mice are injected with the test substance of different doses and usually subcutaneously. 15 minutes later ^3 H-flunitrazepam is administered intravenously to the mice, and after a further 20 minutes, the mice are killed. Their forebrain membranes are removed and the radioactivity of these forebrain membranes is measured by scintillation counting. The ED50 value is determined from dose-response curves.

Structure (SMILES) | Inhibition of H^3flunitrazepam binding in vitro IC50 (benzodiazepine receptors [1]) | Inhibition of H^3flunitrazepam binding in vivo ED50 (benzodiazepine receptors [2]) [mg/kg]
CCOC(=O)c1ncc2[nH]c3cccc(OC(C)C)c3c2c1COC | 0.6 | 1.4
CCOC(=O)c1ncc2[nH]c3cccc(OC4CCC4)c3c2c1COC | 0.2 | 0.5
CCOCc1cccc2[nH]c3cnc(C(=O)OCC)c(COC)c3c12 [Example 1, 5-ethoxymethyl-4-methoxymethyl-β-carboline-3-carboxylic acid ethylester] | 0.4 | 2.4
